Measured values reported in patent US10716306B2, “N-alkylsulfonyl indoline compound, agricultural and horticultural insecticide comprising the compound, and method for using the insecticide” (Nihon Nohyaku Co., Ltd., priority 2016, dated 2020).

Experiments:
[1] = tested on: Laodelphax striatellus; experiment: Insecticidal test on Laodelphax striatellus; type: in vivo; conditions: 192 h, rice seedlings dipped 30 seconds, ten 3rd-instar larvae, 8 days after the inoculation, read-out: insecticidal efficacy (corrected mortality rate)
Excerpt: Insecticidal Test on Laodelphax striatellus
The condensed heterocyclic compounds represented by the general formula (1) of the present invention or salts thereof were separately dispersed in water and diluted to 500 ppm. Rice plant seedlings (variety: Nihonbare) were dipped in the agrochemical dispersions for 30 seconds. After air-dried, each seedling was put into a separate glass test tube and inoculated with ten 3rd-instar larvae of Laodelphax striatellus, and then the glass test tubes were capped with cotton plugs. At 8 days after the inoculation, the numbers of surviving larvae and dead larvae were counted, the corrected mortality rate was calculated according to the formula shown below, and the insecticidal efficacy was evaluated according to the criteria shown below. Corrected mortality rate (%)=100×(Survival rate in a non-treatment plot−Survival rate in a treatment plot)/Survival rate in a non-treatment plot [Math. 2] Corrected Mortality Rate A: the corrected mortality rate is 100%. B: the corrected mortality rate is 90 to 99%. C: the corrected mortality rate is 80 to 89%. D: the corrected mortality rate is 50 to 79%.

[2] = tested on: Plutella xylostella; experiment: Insecticidal test on Plutella xylostella; type: in vivo; conditions: 144 h, Chinese cabbage seedlings with laid eggs dipped about 30 seconds, 25° C., 6 days after the dip treatment, read-out: insecticidal efficacy (corrected mortality rate)
Excerpt: Insecticidal Test on Plutella xylostella
Adults of Plutella xylostella were released onto Chinese cabbage seedlings and allowed to lay eggs thereon. At 2 days after the release of the adults, the Chinese cabbage seedlings with laid eggs were dipped for about 30 seconds in agrochemical dispersions diluted to 500 ppm, each of which contained a different kind of indoline compound represented by the general formula (1) of the present invention as an active ingredient. After air-dried, the seedlings were kept in a thermostatic chamber at 25° C. At 6 days after the dip treatment, the number of hatched larvae per plot was counted, the mortality rate was calculated according to the formula shown below, and the insecticidal efficacy was evaluated according to the criteria of Test Example 2. This test was conducted in triplicate using 10 adults of Plutella xylostella per plot. Corrected mortality rate (%)=100×(Number of hatched larvae in a non-treatment plot−Number of hatched larvae in a treatment plot)/Number of hatched larvae in a non-treatment plot [Math. 3]

SMILES	mortality at 500 ppm [1] [%]	mortality at 500 ppm [2] [%]
CCS(=O)(=O)N1c2ccccc2CC1c1nc2cc(C(F)(F)F)cnc2n1C (centres unmarked) [Compound 2-1, 2-(1-ethylsulfonyl-indolin-2-yl)-3-methyl-6-trifluoromethyl-3H-imidazo[4,5-b]pyridine]	100	100
CCS(=O)(=O)N1c2ccccc2CC1c1nc2cc(SC(F)(F)F)ccc2o1 (centres unmarked) [Compound 3-1, 2-(1-ethylsulfonyl-indolin-2-yl)-5-trifluoromethyl-thiobenzo[d]oxazole]	100	100
CCS(=O)(=O)N1c2ccc(I)cc2CC1c1nc2cc(SC(F)(F)F)ccc2o1 (centres unmarked) [Compound 3-5, 2-(1-ethylsulfonyl-5-iodoindolin-2-yl)-5-trifluoromethyl-thiobenzo[d]oxazole]	100	100
CCS(=O)(=O)N1c2ccc(C3CC3)cc2CC1c1nc2cc(SC(F)(F)F)ccc2o1 (centres unmarked) [Compound 3-19, 2-(1-ethylsulfonyl-5-cyclopropyl-indolin-2-yl)-5-trifluoromethyl-thiobenzo[d]oxazole]	100	100
